pEC50: −log10 of the molar value. Values joined by “and” are separate entries in the source; they are usually repeats but may differ in a detail not shown here. Equal entries are not always repeated. Active and inactive are the calls of the source.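 The calls were made as follows: active = EC50 no more than a set limit of log units above the highest dose; inactive = the rest.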
Target: S. pyogenes SKKanGAS, kanamycin survival, BacTiterGlo, 6 h
Test: S. pyogenes SKKanGAS kanamycin growth inhibitors – SKKanGAS strain, luminescence, dose confirmation, streptokinase promoter inhibitor project, dose response (AID 1902);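 also: lower survival reflects blocked streptokinase promoter driving kanamycin resistance gene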

Row | Structure (SMILES) | pEC50 | EC50
1 | CCCCCCCCCCCCCCCCn1cc[n+](C)c1 | 5.72 and 5.69 | –
2 | Nc1nc(CN2CCN(c3ccc(F)cc3)CC2)nc(N2CCCc3ccccc32)n1 | 6.75 | –
3 | O=c1c2ccccc2nc(COc2ccccc2)n1/N=C/c1cc([N+](=O)[O-])ccc1O | 5.76 | –
4 | O=C(Nc1ccc(Oc2ccc(Cl)cc2)c(Cl)c1)c1cc(I)cc(I)c1O | > 7.22 | –
5 | O=[N+]([O-])c1ccc(-c2nc(-c3cccs3)c(-c3cccs3)[nH]2)cc1 | 5.02 | –
6 | O=C(CSc1nc2nc(-c3cccs3)cc(C(F)(F)F)c2c(=O)[nH]1)Nc1ccc(F)c(F)c1 | 5.93 | –
7 | Cc1ccc(S(=O)(=O)/N=C2\C=C(Nc3cccc(C(=O)O)c3)C(=O)c3ccccc32)cc1 | 5.61 | –
8 | C/C(=N\Nc1nc2ccc(Cl)cc2o1)c1ccccc1 | 5.63 | –
9 | O=C(Nc1cccc(-c2nnc(-c3ccccc3)o2)c1)c1ccc(Br)o1 | 5.07 | –
10 | COc1ccc(-c2cc3nc[nH]c(=O)c3s2)cc1 | 5.08 | –
11 | N#Cc1c(NC(=O)CSc2n[nH]c(Cc3ccccc3)n2)oc(-c2ccccc2)c1-c1ccccc1 | 5.31 | –
12 | N#Cc1c(Nc2cccc(F)c2)sc2c(O)cc(=O)[nH]c12 | 6.06 | –
13 | O=C(CSc1nnc(NC(=O)C2CC(=O)N(c3ccc(F)cc3)C2)s1)NCc1ccco1 (stereo not given) | – | > 15 µM (inactive)
14 | CCOc1ccc(Nc2cc(C)nc(-n3nc(C)cc3C)n2)cc1 | 4.85 | –
15 | O=C(Nc1cccc(Cl)c1N1CCCCC1)c1ccc2c(c1)OCCO2 | 4.98 | –
16 | Cc1cc(C)c[n+](C2=C([O-])c3ccccc3C(=O)/C2=N\S(=O)(=O)c2cccs2)c1 | 5.73 | –
17 | CC(C)COC(=O)c1cccc2c1-c1ccccc1/C2=N\O | 5.30 | –
18 | COc1ccc2nc(-n3c(C)ccc3C)sc2c1 | – | > 15 µM (inactive)
19 | O=C(Nc1cccc(-c2csc(Nc3cccc(C(F)(F)F)c3)n2)c1)c1ccccc1 | 5.36 | –
20 | O=[N+]([O-])c1cc(Br)c(O)c(/C=N/Nc2nc3ccccc3s2)c1 | 5.91 | –
21 | Fc1ccc(CSc2ncnc3sc4c(c23)CCCC4)cc1 | 5.40 | –
22 | CCCc1cc2c(-c3ccccc3)cc(=O)oc2cc1OCc1ccc(C(=O)O)o1 | 5.05 | –
23 | O=C(N/N=C/c1cc(Cl)ccc1O)c1cccnc1 | 5.81 | –
24 | CCc1ccc(N=C2NC(=O)/C(=C/c3cc(OC)c(O)c(OC)c3)S2)cc1 | 5.35 | –
25 | CCCCc1nc2cc(C(=O)N3CCC(OCCOC)CC3)ccc2o1 | – | > 15 µM (inactive)
26 | COc1ccc(CNCC(O)(c2ccc(Cl)cc2)c2ccc(Cl)cc2)cc1 | 5.45 | –
27 | Cc1csc(NC(=O)COCC(=O)O)c1-c1nc2ccccc2s1 | 5.19 | –

Row | Structure (SMILES) | pEC50 | EC50
28 | CCCCC(CC)C(=O)Oc1ccc(O)c(C(C)(C)C)c1 (stereo not given) | 5.54 | –
29 | CSc1ccc(/C=C2\CCn3c2nc2cc(C(=O)O)ccc2c3=O)cc1 | 5.21 | –
30 | Cn1ccc(=Nc2ccc(NC(=O)c3ccc(N=c4ccn(C)c5ccc([N+](=O)[O-])cc45)cc3)cc2)cc1 | 6.45 | –
31 | OC(c1ccc(OCc2ccccc2)cc1)c1nnc(-c2ccccc2)o1 (stereo not given) | 4.87 | –
32 | COc1ccc(-c2cn[nH]c2-c2ccc(OCc3ccccc3)cc2O)cc1 | 5.62 | –
33 | COc1ccc(-c2nc(-c3cccs3)c(-c3cccs3)[nH]2)cc1OC | 5.36 | –
34 | CN1C(=O)/C(=C/c2ccc(C(F)(F)F)cc2)Sc2ccc(C(=O)N3CCN(c4ccccn4)CC3)cc21 | 5.80 | –
35 | CCc1ccc2c(c1)C1(NN=C(c3ccccc3)S1)C(=O)N2 (stereo not given) | 6.61 | –
36 | Cc1ccc(Cn2ccc(=O)c(OCc3c(Cl)cccc3Cl)c2C)cc1 | 5.23 | –
37 | Cc1sc2nc(-c3ccccn3)[nH]c(=O)c2c1-c1ccccc1 | 5.89 | –
38 | O=C(NC(NC(=S)Nc1ccccc1Cl)C(Cl)(Cl)Cl)c1cccc(Cl)c1 (stereo not given) | 5.80 | –
39 | CN1CCN(NC(=O)Nc2cc(Cl)cc(Cl)c2)CC1 | 5.43 | –
40 | O=C(O)CSc1nnc(Cn2c(=O)sc3ccccc32)n1-c1cccc(Cl)c1 | – | > 15 µM (inactive)
41 | CC(C)Sc1cc(N2CCCC2)nc(-c2ccc(F)cc2)n1 | 5.23 | –
42 | CCc1ccc(Nc2n[n+](-c3ccccc3)c(-c3c(Cl)cccc3Cl)s2)cc1 | 5.21 | –
43 | COc1cccc(-c2coc3cc4oc(=O)c(CCC(=O)O)c(C)c4cc23)c1 | 5.29 | –
44 | C[C@@H](O)[C@H]1C(=O)N2C(C(=O)O)=C(S[C@@H]3CN[C@H](C(=O)N(C)C)C3)[C@H](C)[C@H]12 | 6.90 | –
45 | O=C1Nc2cc(C(=O)N3CCN(c4ccccn4)CC3)ccc2S/C1=C\c1ccccc1 | 5.47 | –
46 | CCOC(=O)c1cnc(-n2nc(C)cc2C)nc1Nc1ccc(C)cc1 | 7.00 | –
47 | Cc1cc2nc(CSc3ccccc3)cc(=O)n2[nH]1 | 5.42 | –
48 | COc1cnc(-c2ccccn2)nc1Oc1c(C)cccc1C | 6.69 | –
49 | Cc1ccc(OCCn2c(=S)[nH]c3ccccc32)c(C(C)C)c1 | 5.67 | –
50 | CC1(C)Cc2c(cnn2-c2ccccc2)C(NC(=O)CCCN2CCCC2=O)C1 (stereo not given) | – | > 15 µM (inactive)
51 | C#C[C@]1(O)CC[C@H]2[C@@H]3CCc4cc(OC5CCCC5)ccc4[C@H]3CC[C@@]21C | 5.58 | –
52 | O=C(O)c1cc(-c2ccc(-c3c(-c4ccc5c(c4)OCO5)noc3-c3ccsc3)cc2)nc2ccccc12 | 5.74 | –
53 | COc1ccccc1-c1n[nH]c2c1[C@H](C)CC[C@H]2C(C)C | 5.55 | –
54 | O=C(CSc1nnc(CNC(=O)c2c(F)cccc2F)o1)NCCc1ccccc1 | – | > 15 µM (inactive)

Row | Structure (SMILES) | pEC50 | EC50
55 | COc1ccc(N2CCN(C(=O)c3cc(C)oc3C)CC2)cc1 | – | > 15 µM (inactive)
56 | Cc1ccc(C(C)C)c(OCc2ccc(C(=O)N/N=C/c3ccc(O)cc3O)cc2)c1 | 5.90 | –
57 | C/C(=N\N=C(/N)SC1CC(=O)N(c2ccc(Br)cc2)C1=O)c1cccs1 (stereo not given) | 5.30 | –
58 | CCOC(=O)c1sc(N2C(=O)C(O)=C(C(=O)c3ccco3)C2c2cccc(Cl)c2)nc1C (stereo not given) | 5.28 | –
59 | Cc1ccc(S(=O)(=O)Nc2cc(Cl)c(O)c3ncccc23)cc1 | 5.15 | –
60 | O=C(N/N=C/c1cc(Br)cc([N+](=O)[O-])c1O)c1ccc(NC(=O)c2ccc(F)cc2)cc1 | 5.40 | –
61 | CC(C)C1Cc2c(sc3[nH]c(=S)n(Cc4ccccc4)c(=O)c23)CO1 (stereo not given) | 5.53 | –
62 | CC(C(=O)NC1C(=O)N2C(C(=O)O)=C(CSc3nnnn3C)CSC12)n1cc(Cl)cn1 (stereo not given) | 7.11 | –
63 | CCCC1=NN2C(=N)/C(=C\c3cc(C)n(-c4cc(C)cc(C)c4)c3C)C(=O)N=C2S1 | 5.74 | –
64 | O=S(=O)(Nc1cccc2c1CCCC2)c1ccc(Cl)cc1 | 5.53 | –
65 | C[C@H]1c2cccc(O)c2C(O)=C2C(=O)[C@]3(O)C(O)=C(C(N)=O)C(=O)[C@@H](N(C)C)C3[C@@H](O)C21 (stereo not given in full) | > 7.22 | –
66 | COC(=O)c1ccc(Oc2nc3ccccc3n3c(C)nnc23)cc1 | 5.21 | –
67 | Cc1ccccc1N=Nc1ccc(O)c2ncccc12 | 7.16 | –
68 | NC1CCN(c2c(F)cc3c(=O)c(C(=O)O)cn(C4CC4)c3c2Cl)C1 (stereo not given) | 7.19 | –
69 | C=CCn1c(N2C(=O)CC(Cc3ccccc3)C2=O)nc2ccccc21 (stereo not given) | 5.35 | –
70 | CNC[C@@H](CC1CCCCC1)NC[C@H](CC(C)C)NCCc1cccc(C(F)(F)F)c1 | 5.27 | –
71 | CC1CCN(C(=O)c2ccc3c(c2)NC(=O)/C(=C/c2ccccc2)S3)CC1 | 5.58 | –
72 | O=C(CSc1ccc(Cl)cc1)NC1=NN(c2ccccc2)C(=O)C1 | 5.26 | –
73 | CCSc1nsc(NC(=O)Nc2cccc(F)c2)n1 | 5.12 | –
74 | O=C(NC12CC3CC(CC(C3)C1)C2)c1ccc(-c2ccc(Br)cc2)o1 | 4.96 | –
75 | O=S(=O)(NC(=NCc1ccccc1)c1ccccc1)c1ccc(Br)cc1 | – | > 15 µM (inactive)
76 | O=C(NNC1=C(C(=O)C(F)(F)F)CCC1)c1cccc(Cl)c1 | 6.03 | –
77 | O=C(Nc1ccc(OCC(F)(F)C(F)F)c(C(F)(F)F)c1)c1ccc(Cl)cc1 | 5.44 | –
78 | COc1ccc(OC)c(C2C=C(C34CC5CC(CC(C5)C3)C4)NC(=S)N2)c1 (stereo not given) | 5.53 | –
79 | Cc1ccc(N2C(=O)C3CC(c4ccccc4)=C4C5C=CC(C6C(=O)N(c7ccc(C)cc7)C(=O)C56)C4C3C2=O)cc1 (stereo not given) | 5.86 | –
80 | Cc1[nH]n(-c2ccccc2)c(=O)c1/C=N/NC(=O)c1ccccc1F | 5.95 | –
81 | COc1ccc(N=Nc2ccc(O)c3ncccc23)cc1 | > 7.22 | –

Row | Structure (SMILES) | pEC50 | EC50
82 | CCOc1ccc(/C=N/Nc2cc(N3CCOCC3)nc(C)n2)c(O)c1 | 5.07 | –
83 | Cc1ccc(NS(=O)(=O)c2ccc(C3CCCCC3)cc2)cc1 | 5.36 | –
84 | CC(C)c1ccc2[nH]c(O)c(N=NC(=O)c3cccc(S(=O)(=O)N4CCCCC4)c3)c2c1 | 5.15 | –
85 | CC(=O)NS(=O)(=O)c1ccc(N=c2ssc3c2-c2ccc(C)cc2NC3(C)C)cc1 | 5.53 | –
86 | O=C(Nc1ccc(OC(F)(F)F)cc1)N1CCN(c2ccnc3cc(Cl)ccc23)CC1 | 5.03 | –
87 | O=C(NC(Cc1c[nH]c2ccccc12)C(=O)N/N=C/c1cccc2ccccc12)c1cccs1 (stereo not given) | 5.27 | –
88 | O=C1N/C(=N\N=C\c2cccnc2)SC1Cc1ccc(SC(F)F)cc1 (stereo not given) | 5.51 | –
89 | O=C(NNC(=S)NC(=O)c1ccco1)c1ccc(NC(=O)c2ccccc2)cc1 | 5.92 | –
90 | CCOC(=O)/C(=N\Nc1ccc(OC)cc1)c1csc(Nc2ccccc2)n1 | 5.61 | –
91 | COCCNC(=O)c1c(NC(=O)c2ccco2)n(Cc2ccccc2)c2nc3ccccc3nc12 | 5.07 | –
92 | CC(C)CN(Cc1cc(=O)oc2cc3c(cc12)CCCC3)CC(C)C | 5.11 | –
93 | COc1ccc(/C=C2\Sc3ccc(C(=O)N4CCCC4)cc3N(C)C2=O)cc1OC | 6.29 | –
94 | CCOc1ccc(C(=O)NC(=S)Nc2ccc(N3CCOCC3)c(Cl)c2)cc1[N+](=O)[O-] | 6.15 | –
95 | Cc1cc(C)c(S(=O)(=O)/N=C2\C=C(Nc3ccc(C(=O)O)cc3)C(=O)c3ccccc32)c(C)c1 | 5.93 | –
96 | CCCCCCCCCCCCN1C(=O)CSC1c1cccnc1 (stereo not given) | 5.23 | –
97 | Cc1cccc(NC2=NC(C)(C)N=C(N)N2)c1 | 6.96 | –
98 | O=C(Nc1ccc(-c2csc(Nc3ccccc3)n2)cc1)c1cccc(C(F)(F)F)c1 | – | > 15 µM (inactive)
99 | Brc1ccc(-c2cn3c(n2)CCc2ccc4cccnc4c2-3)cc1 | 5.75 | –
100 | O=C(Cc1ccccc1)NNC(=S)NC(=O)c1cccs1 | 5.42 | –
101 | Oc1c(Br)cc(Br)cc1Oc1ccc(Br)cc1Br | 5.75 | –
102 | CCOC(=O)c1sc2nccc(N(C)C)c2c1N=CNOCc1c(F)cccc1Cl | 5.29 | –
103 | CN1CC(c2ccc(Cl)c(Cl)c2)[C@@]2(COc3ccccc3C2=O)[C@@]12C(=O)Nc1ccccc12 (stereo not given in full) | 5.84 | –
104 | CCCCCCC(=O)N/N=C/c1c(O)n(CCCC)c(=S)[nH]c1=O | 5.67 | –
105 | CCOC(=O)c1c(-c2ccc(C)cc2)csc1NC(=O)CCN1CCOCC1 | – | > 15 µM (inactive)
